Columns and labels:
[1] = molecular target: G/T mismatch-specific thymine DNA glycosylase (Homo sapiens) (UniProt Q13569); details: Hit No;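 further: human TDG cleavage of quenched duplex DNA oligonucleotides coupled to APE1, strand release read as fluorescence at 594 nm, inhibition of TDG activity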
Description: Inhibition of TDG by quantifying inhibition of TDG-mediated cleavage and dissociation of quenched duplex DNA oligonucleotides, measured as fluorescence at 594 nm. To generate a functional strand incision and increase turn-over this assay is coupled to APE1.

[2] = molecular target: T1, Single-strand selective monofunctional uracil DNA glycosylase (Homo sapiens) (UniProt Q53HV7); details: Hit No;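 further: enzymatic SMUG1 assay coupled with APE1, reading fluorescence at 594 nm released when a quenched double-stranded DNA oligonucleotide substrate is cleaved and separated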
T1 sequence (whole entry): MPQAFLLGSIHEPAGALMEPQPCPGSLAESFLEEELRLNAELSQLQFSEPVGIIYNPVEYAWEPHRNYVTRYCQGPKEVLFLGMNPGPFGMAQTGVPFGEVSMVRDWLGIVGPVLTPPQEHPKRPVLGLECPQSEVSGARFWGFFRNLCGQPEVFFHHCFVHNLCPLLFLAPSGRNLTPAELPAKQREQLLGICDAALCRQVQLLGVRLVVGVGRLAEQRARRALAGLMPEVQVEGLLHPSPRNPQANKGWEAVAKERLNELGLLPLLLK
Description: Inhibition of SMUG1 by quantifying inhibition of SMUG1-mediated cleavage and dissociation of quenched duplex DNA oligonucleotides, measured as fluorescence at 594 nm. To generate a functional strand incision and increase turn-over this assay is coupled to APE1.

[3] = molecular target: T2, Endonuclease 8-like 2 (Homo sapiens) (UniProt Q969S2);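 further: fluorescence at 594 nm reports NEIL2 cutting and release of a quenched double-stranded DNA oligo substrate, reduced signal read as inhibition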
T2 sequence (whole entry): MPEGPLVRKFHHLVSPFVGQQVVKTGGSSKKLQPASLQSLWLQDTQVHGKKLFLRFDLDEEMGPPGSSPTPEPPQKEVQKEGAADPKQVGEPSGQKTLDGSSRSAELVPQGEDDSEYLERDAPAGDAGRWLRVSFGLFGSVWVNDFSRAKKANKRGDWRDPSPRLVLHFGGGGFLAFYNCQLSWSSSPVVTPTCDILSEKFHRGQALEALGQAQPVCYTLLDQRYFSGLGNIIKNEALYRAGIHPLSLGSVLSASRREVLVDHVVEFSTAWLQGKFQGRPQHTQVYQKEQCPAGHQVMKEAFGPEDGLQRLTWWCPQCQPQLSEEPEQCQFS
Description: Inhibition of NEIL2 by quantifying inhibition of NEIL2-mediated cleavage and dissociation of quenched duplex DNA oligonucleotides, measured as fluorescence at 594 nm.

[4] = molecular target: N-glycosylase/DNA lyase (Homo sapiens) (UniProt O15527); details: Hit No;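 further: OGG1 cleavage of a quenched duplex DNA oligonucleotide, coupled to APE1 for strand incision, read as fluorescence at 594 nm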
Chain of N-glycosylase/DNA lyase (Homo sapiens) (O15527 whole entry): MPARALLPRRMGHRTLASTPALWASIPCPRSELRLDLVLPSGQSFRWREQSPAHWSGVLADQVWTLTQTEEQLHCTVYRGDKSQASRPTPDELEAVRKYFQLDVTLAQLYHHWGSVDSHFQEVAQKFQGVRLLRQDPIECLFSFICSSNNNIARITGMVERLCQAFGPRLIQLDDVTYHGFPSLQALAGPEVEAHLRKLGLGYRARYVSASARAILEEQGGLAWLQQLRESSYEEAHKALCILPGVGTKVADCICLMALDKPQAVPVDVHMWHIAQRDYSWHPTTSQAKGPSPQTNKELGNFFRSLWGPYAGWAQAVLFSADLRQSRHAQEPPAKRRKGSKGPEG
Description: Inhibition of OGG1 by quantifying inhibition of OGG1-mediated cleavage and dissociation of quenched duplex DNA oligonucleotides, measured as fluorescence at 594 nm. To generate a functional strand incision and increase turn-over this assay is coupled to APE1.

[5] = molecular target: Uracil-DNA glycosylase (Homo sapiens) (UniProt P13051); details: Hit No;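 further: UNG excision on a quenched double-stranded DNA oligo probe, with APE1 added for strand incision and turnover, read as fluorescence at 594 nm as strands separate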
Chain of Uracil-DNA glycosylase (Homo sapiens) (P13051 whole entry): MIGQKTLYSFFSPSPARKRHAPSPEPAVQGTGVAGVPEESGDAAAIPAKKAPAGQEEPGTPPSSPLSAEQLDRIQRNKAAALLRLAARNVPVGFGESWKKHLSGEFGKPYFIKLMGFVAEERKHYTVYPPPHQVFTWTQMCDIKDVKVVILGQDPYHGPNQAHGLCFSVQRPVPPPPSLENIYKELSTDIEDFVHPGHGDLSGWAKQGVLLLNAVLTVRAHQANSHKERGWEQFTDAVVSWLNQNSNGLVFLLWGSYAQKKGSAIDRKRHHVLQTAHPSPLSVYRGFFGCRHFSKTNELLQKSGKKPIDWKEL
Description: Inhibition of UNG by quantifying inhibition of UNG-mediated cleavage and dissociation of quenched duplex DNA oligonucleotides, measured as fluorescence at 594 nm. To generate a functional strand incision and increase turn-over this assay is coupled to APE1.

[6] = molecular target: Endonuclease 8-like 1 (Homo sapiens) (UniProt Q96FI4); details: Hit No;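 further: fluorescence at 594 nm from quenched duplex DNA oligonucleotides released by NEIL1 cleavage and strand separation, reported as reduction of this enzyme activity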
Chain of Endonuclease 8-like 1 (Homo sapiens) (Q96FI4 whole entry): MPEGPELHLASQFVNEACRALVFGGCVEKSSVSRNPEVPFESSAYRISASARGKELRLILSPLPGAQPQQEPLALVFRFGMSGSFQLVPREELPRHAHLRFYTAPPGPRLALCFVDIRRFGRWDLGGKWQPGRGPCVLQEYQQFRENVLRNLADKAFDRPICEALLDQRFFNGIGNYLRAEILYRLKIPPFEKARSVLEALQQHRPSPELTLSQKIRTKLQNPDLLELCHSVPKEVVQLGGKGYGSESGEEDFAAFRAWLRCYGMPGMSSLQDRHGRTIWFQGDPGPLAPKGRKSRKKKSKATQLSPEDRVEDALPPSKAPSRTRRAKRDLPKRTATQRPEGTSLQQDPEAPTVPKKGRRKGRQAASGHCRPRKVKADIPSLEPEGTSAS
Description: Inhibition of NEIL1 by quantifying inhibition of NEIL1-mediated cleavage and dissociation of quenched duplex DNA oligonucleotides, measured as fluorescence at 594 nm.

[7] = molecular target: T3, Adenine DNA glycosylase (Homo sapiens) (UniProt Q9UIF7); details: Hit No;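 further: human MUTYH activity read as 594 nm fluorescence from cleavage and release of a quenched DNA duplex, coupled with APE1 for strand incision, lower signal meaning inhibition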
T3 sequence (whole entry): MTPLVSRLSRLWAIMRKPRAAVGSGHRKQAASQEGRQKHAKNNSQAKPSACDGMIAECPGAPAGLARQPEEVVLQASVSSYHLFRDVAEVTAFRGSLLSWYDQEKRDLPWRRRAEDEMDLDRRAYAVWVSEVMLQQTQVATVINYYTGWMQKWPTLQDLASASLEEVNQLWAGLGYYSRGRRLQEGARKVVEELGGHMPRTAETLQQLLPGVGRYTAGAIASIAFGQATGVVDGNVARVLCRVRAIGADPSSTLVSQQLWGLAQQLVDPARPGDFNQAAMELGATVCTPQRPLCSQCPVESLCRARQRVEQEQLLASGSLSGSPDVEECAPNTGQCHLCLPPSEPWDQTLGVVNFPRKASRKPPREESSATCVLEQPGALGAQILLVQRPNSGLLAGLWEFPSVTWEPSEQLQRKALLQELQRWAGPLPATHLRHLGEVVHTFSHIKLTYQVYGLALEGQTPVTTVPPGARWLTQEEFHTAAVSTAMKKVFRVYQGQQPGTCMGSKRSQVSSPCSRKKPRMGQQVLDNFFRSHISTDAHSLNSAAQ
Description: Inhibition of MUTYH by quantifying inhibition of MUTYH-mediated cleavage and dissociation of quenched duplex DNA oligonucleotides, measured as fluorescence at 594 nm. To generate a functional strand incision and increase turn-over this assay is coupled to APE1.

[8] = molecular target: Methyl-CpG-binding domain protein 4 (Homo sapiens) (UniProt O95243); details: Hit No;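 further: MBD4 activity read as fluorescence at 594 nm from cleavage and release of a quenched duplex DNA oligonucleotide, with APE1 coupled to incise the strand and raise turnover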
Chain of Methyl-CpG-binding domain protein 4 (Homo sapiens) (O95243 whole entry, the tested form may be a part): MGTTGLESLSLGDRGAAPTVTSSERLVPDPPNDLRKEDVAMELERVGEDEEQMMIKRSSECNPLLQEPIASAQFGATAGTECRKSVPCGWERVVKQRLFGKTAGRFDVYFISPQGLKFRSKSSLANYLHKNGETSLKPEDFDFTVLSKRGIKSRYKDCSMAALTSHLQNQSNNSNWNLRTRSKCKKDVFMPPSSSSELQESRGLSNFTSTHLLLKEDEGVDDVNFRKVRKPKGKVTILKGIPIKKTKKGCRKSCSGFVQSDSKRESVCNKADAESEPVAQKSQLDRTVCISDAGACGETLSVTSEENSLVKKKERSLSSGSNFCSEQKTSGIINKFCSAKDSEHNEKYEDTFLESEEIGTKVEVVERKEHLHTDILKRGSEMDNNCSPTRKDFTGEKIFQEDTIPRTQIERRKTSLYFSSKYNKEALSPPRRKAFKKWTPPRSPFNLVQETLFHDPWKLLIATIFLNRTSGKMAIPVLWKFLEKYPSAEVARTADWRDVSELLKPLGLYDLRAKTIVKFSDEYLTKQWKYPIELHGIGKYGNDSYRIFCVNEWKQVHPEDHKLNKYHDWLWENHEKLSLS
Description: Inhibition of MBD4 by quantifying inhibition of MBD4-mediated cleavage and dissociation of quenched duplex DNA oligonucleotides, measured as fluorescence at 594 nm. To generate a functional strand incision and increase turn-over this assay is coupled to APE1.

[9] = Compound Concentration 10.0 uM, Hit No
[10] = Compound Concentration 1.0 uM, Hit No

Chain of G/T mismatch-specific thymine DNA glycosylase (Homo sapiens) (Q13569 whole entry): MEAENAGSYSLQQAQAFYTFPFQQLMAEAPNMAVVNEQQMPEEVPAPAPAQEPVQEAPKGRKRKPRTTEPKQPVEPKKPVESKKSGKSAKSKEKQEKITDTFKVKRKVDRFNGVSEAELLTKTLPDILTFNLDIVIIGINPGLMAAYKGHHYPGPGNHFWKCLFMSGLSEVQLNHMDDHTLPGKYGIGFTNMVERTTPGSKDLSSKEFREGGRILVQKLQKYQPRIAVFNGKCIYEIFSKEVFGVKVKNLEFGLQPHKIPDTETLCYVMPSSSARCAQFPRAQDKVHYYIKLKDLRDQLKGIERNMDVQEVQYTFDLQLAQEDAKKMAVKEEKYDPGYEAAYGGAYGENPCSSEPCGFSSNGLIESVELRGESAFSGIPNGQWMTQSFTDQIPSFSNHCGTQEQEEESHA

Structure (SMILES)	inhibition ([1]; Compound Concentration 10.0 uM)	inhibition ([2]; Compound Concentration 10.0 uM)	inhibition [3, 9]	inhibition ([4]; Compound Concentration 10.0 uM)	inhibition ([5]; Compound Concentration 10.0 uM)	inhibition ([6]; Compound Concentration 10.0 uM)	inhibition ([7]; Compound Concentration 10.0 uM)	inhibition ([8]; Compound Concentration 10.0 uM)	inhibition ([1]; Compound Concentration 1.0 uM)	inhibition ([2]; Compound Concentration 1.0 uM)	inhibition [3, 10]	inhibition ([4]; Compound Concentration 1.0 uM)	inhibition ([5]; Compound Concentration 1.0 uM)	inhibition ([6]; Compound Concentration 1.0 uM)	inhibition ([7]; Compound Concentration 1.0 uM)	inhibition ([8]; Compound Concentration 1.0 uM)	inhibition ([3]; Compound Concentration 10.0 uM, Hit Yes)
Cc1nc(C#Cc2cccnc2)cs1	4.62%	-8.43%	-1.88%	-7.91%	-6.91%	1.49%	5.76%	-0.814%									
CCN(Cc1ccc(Cl)cc1)c1ncc(C(=O)NCCCN2CCCC2=O)c(NC2CCCC2)n1	63.4%	17.5%	-8.65%	-2.04%	8.58%	-2.37%	3.34%	-8.97%									
O=C(NC[C@@H]1[C@H]2CN(C(=O)OCc3cc(C(F)(F)F)cc(C(F)(F)F)c3)C[C@@H]12)c1ccc2[nH]nnc2c1	43.8%	8.85%	-6.36%	19.9%	-1.24%	-8.32%	-6.99%	48.7%									
Cn1cc(Nc2nccc(N3CC4CCC(C3)N4C(=O)[C@@H]3CC3(F)F)n2)cn1	35.9%	8.21%	-8.92%	-0.945%	-0.791%	0.138%	-8.86%	-6.61%									
Nc1cnc(N2CCc3cc(S(=O)(=O)Nc4c(F)cc(Cl)cc4F)cc(N4CCCC4=O)c32)nc1									41.3%	6.61%	-0.999%	0.18%	-1.59%	-8.47%	-0.378%	55.9%	
N#CN1CC[C@@H](C(=O)Nc2nc3c(s2)CN(C(=O)CN=[N+]=[N-])CC3)C1	50.9%	2.3%	-7.63%	3.62%	4.95%	6.22%	-2.56%	54.3%									
COc1cc(-c2cncc(-c3ccc(N4CCN(C(C)C)CC4)cc3)c2C)cc(F)c1C(N)=O	38.5%	31.3%	1.85%	10.3%	5.22%	5.68%	-6.43%	0.764%									

Next, values leading:

inhibition ([1]; Compound Concentration 10.0 uM)	inhibition ([2]; Compound Concentration 10.0 uM)	inhibition [3, 9]	inhibition ([4]; Compound Concentration 10.0 uM)	inhibition ([5]; Compound Concentration 10.0 uM)	inhibition ([6]; Compound Concentration 10.0 uM)	inhibition ([7]; Compound Concentration 10.0 uM)	inhibition ([8]; Compound Concentration 10.0 uM)	inhibition ([1]; Compound Concentration 1.0 uM)	inhibition ([2]; Compound Concentration 1.0 uM)	inhibition [3, 10]	inhibition ([4]; Compound Concentration 1.0 uM)	inhibition ([5]; Compound Concentration 1.0 uM)	inhibition ([6]; Compound Concentration 1.0 uM)	inhibition ([7]; Compound Concentration 1.0 uM)	inhibition ([8]; Compound Concentration 1.0 uM)	inhibition ([3]; Compound Concentration 10.0 uM, Hit Yes)	Structure (SMILES)
87.5%	25.9%	-2.53%	16.9%	6.44%	-8.47%	-0.214%	54.5%										NS(=O)(=O)c1cc(NC(=O)Cc2ccccc2)ccc1Oc1cccc(Cl)c1
								64.1%	28.4%	1.04%	16.9%	7.16%	-5.54%	3.22%	5.7%		N[C@@H]1CCCN(c2c(/C=C3\SC(=O)NC3=O)cccc2-c2ccccc2)C1
99.2%	22.8%	3.59%	15.1%	7.72%	-9.53%	1.15%	67%										CCC(C)N(C)C(=O)c1cc2ccccc2c(-c2ccccc2Cl)n1 (centres undefined)
98%	23.5%	-7.89%	30.3%	11.1%	-5.59%	3.77%	54.8%										O=C(Nc1ccc(C(O)(C(F)(F)F)C(F)(F)F)cc1)c1ccc(C(F)(F)F)cc1
66.2%	5.31%		16.5%	14.2%	-5.89%	19.2%	8.88%									38%	CNCc1ccccc1-c1csc([C@@H](C)Nc2nc(C)nc3cc(OC)c(OC)cc23)c1
99.8%	19.9%	-2.02%	9.18%	4.47%	-9.23%	12.6%	63.6%										O=S(=O)(Nc1ccc(C(O)(C(F)(F)F)C(F)(F)F)cc1)c1cccs1
